# Results as given in ChEMBL document CHEMBL3885861, “Open TG-GATES”.
# *1 amine or outer side, *2 acyl side, *3 side chain or, on linkers, in order; H or OH if unused. Where a SMILES comes first, the peptide text is derived from it. Bridges are numbered along the chain shown (N, C = ends). [ ]: non-standard residue; d: D form. Trp(2-yl) = O=C([C@H](Cc1c([*:3])[nH]c2ccccc12)N[*:1])[*:2]; Leu(4R-OH,5-OH) = C[C@](O)(CO)C[C@H](N)C(=O)O; cisHyp = O=C(O)[C@@H]1C[C@H](O)CN1
# Organism: Rattus norvegicus
# Test: Open TG-GATES - Regimen: Single
# Assay type: toxicity, organism-based, Sprague-Dawley
# Parameters: regimen Single, gender Male, age 6 weeks
# Settings: in vivo, ip, 1 mg/kg, route intraperitoneal injection, dose level High; for APTT / Bas / Eos / Fbg / Hb / Ht / Lym / MCH / MCHC / MCV / Mono / Neu / PT / Plat / RBC / Ret / WBC: tissue Blood; for KIDNEY_L / KIDNEY_R / KIDNEY_TOTAL: tissue Kidney; for LIVER: tissue Liver; for A/G / ALP / ALT / AST / BUN / CRE / Ca / Cl / DBIL / GLC / IP / K / LDH / Na / PL / RALB / TBIL / TC / TG / TP / gamma-GTP: tissue Plasma
structure (smiles),measurement,setting,value
"C[C@@H]1NC(=O)[C@H](C[C@@](C)(O)CO)NC(=O)[C@@H]2Cc3c([nH]c4ccccc34)SC[C@H](NC(=O)[C@@H]([C@H](C)O)NC1=O)C(=O)N1C[C@@H](O)C[C@H]1C(=O)N[C@@H](C)C(=O)N2 [PHALLOIDIN] (cyclo(A[dT]C[cisHyp]A[Trp(2-yl)][Leu(4R-OH,5-OH)]); thioether 3-6)",TERMINAL_BW,3 h,211.9 g
same,APTT,3 h,21.8 s
same,Bas,3 h,0%
same,Eos,3 h,0%
same,Fbg,3 h,259.6 mg/dL
same,Hb,3 h,12.4 g/dL
same,Ht,3 h,39.5%
same,Lym,3 h,73.8%
same,MCH,3 h,20 pg
same,MCHC,3 h,31.5%
same,MCV,3 h,63.3 fL
same,Mono,3 h,2.6%
same,Neu,3 h,22.6%
same,PT,3 h,15.9 s
same,Plat,3 h,108.1 x10_4/uL
same,RBC,3 h,623.8 x10_4/ul
same,Ret,3 h,7.7%
same,WBC,3 h,66 x10_2/uL
same,KIDNEY_L,3 h,1 g
same,KIDNEY_R,3 h,1 g
same,KIDNEY_TOTAL,3 h,2 g
same,LIVER,3 h,9.1 g
same,A/G,3 h,1.2
same,ALP,3 h,1810.8 IU/L
same,ALT,3 h,49.6 IU/L
same,AST,3 h,110 IU/L
same,BUN,3 h,12 mg/dL
same,CRE,3 h,0.2 mg/dL
same,Ca,3 h,10.4 mg/dL
same,Cl,3 h,107.8 meq/L
same,DBIL,3 h,0.006 mg/dL
same,GLC,3 h,184.8 mg/dL
same,IP,3 h,8.6 mg/dL
same,K,3 h,4 meq/L
same,LDH,3 h,235.2 IU/L
same,Na,3 h,139.6 meq/L
same,PL,3 h,125.8 mg/dL
same,RALB,3 h,2.7 g/dL
same,TBIL,3 h,0.012 mg/dL
same,TC,3 h,78.6 mg/dL
same,TG,3 h,36.2 mg/dL
same,TP,3 h,4.9 g/dL
same,gamma-GTP,3 h,1.6 IU/L
same,TERMINAL_BW,6 h,210 g
same,APTT,6 h,22.3 s
same,Bas,6 h,0%
same,Eos,6 h,0.2%
same,Fbg,6 h,286.6 mg/dL
same,Hb,6 h,12.5 g/dL
same,Ht,6 h,39.2%
same,Lym,6 h,79.6%
same,MCH,6 h,20 pg
same,MCHC,6 h,31.9%
same,MCV,6 h,62.6 fL
same,Mono,6 h,2%
same,Neu,6 h,17.4%
same,PT,6 h,15.9 s
same,Plat,6 h,111.9 x10_4/uL
same,RBC,6 h,626 x10_4/ul
same,Ret,6 h,6.8%
same,WBC,6 h,90.8 x10_2/uL
same,KIDNEY_L,6 h,0.9 g
same,KIDNEY_R,6 h,1 g
same,KIDNEY_TOTAL,6 h,1.9 g
same,LIVER,6 h,9.2 g
same,A/G,6 h,1.3
same,ALP,6 h,1613.8 IU/L
same,ALT,6 h,56.6 IU/L
same,AST,6 h,114.6 IU/L
same,BUN,6 h,14.8 mg/dL
same,CRE,6 h,0.2 mg/dL
same,Ca,6 h,10.3 mg/dL
same,Cl,6 h,106.2 meq/L
same,DBIL,6 h,0 mg/dL
same,GLC,6 h,186.4 mg/dL
same,IP,6 h,7.6 mg/dL
same,K,6 h,3.9 meq/L
same,LDH,6 h,232 IU/L
same,Na,6 h,142 meq/L
same,PL,6 h,141 mg/dL
same,RALB,6 h,2.9 g/dL
same,TBIL,6 h,0.004 mg/dL
same,TC,6 h,90.4 mg/dL
same,TG,6 h,65.8 mg/dL
same,TP,6 h,5.1 g/dL
same,gamma-GTP,6 h,1.8 IU/L
same,TERMINAL_BW,9 h,208.3 g
same,APTT,9 h,20.7 s
same,Bas,9 h,0%
same,Eos,9 h,0.4%
same,Fbg,9 h,291.6 mg/dL
same,Hb,9 h,12.3 g/dL
same,Ht,9 h,39.3%
same,Lym,9 h,80.6%
same,MCH,9 h,20.2 pg
same,MCHC,9 h,31.4%
same,MCV,9 h,64.4 fL
same,Mono,9 h,2.4%
same,Neu,9 h,15.4%
same,PT,9 h,15.3 s
same,Plat,9 h,114.2 x10_4/uL
same,RBC,9 h,610.4 x10_4/ul
same,Ret,9 h,7.8%
same,WBC,9 h,75 x10_2/uL
same,KIDNEY_L,9 h,0.9 g
same,KIDNEY_R,9 h,0.9 g
same,KIDNEY_TOTAL,9 h,1.9 g
same,LIVER,9 h,9.2 g
same,A/G,9 h,1.3
same,ALP,9 h,1636.4 IU/L
same,ALT,9 h,56.8 IU/L
same,AST,9 h,109.6 IU/L
same,BUN,9 h,12.8 mg/dL
same,CRE,9 h,0.2 mg/dL
same,Ca,9 h,10.4 mg/dL
same,Cl,9 h,106.4 meq/L
same,DBIL,9 h,0 mg/dL
same,GLC,9 h,180.4 mg/dL
same,IP,9 h,7.9 mg/dL
same,K,9 h,4.3 meq/L
same,LDH,9 h,158.2 IU/L
same,Na,9 h,140.4 meq/L
same,PL,9 h,144 mg/dL
same,RALB,9 h,2.9 g/dL
same,TBIL,9 h,0.008 mg/dL
same,TC,9 h,97.4 mg/dL
same,TG,9 h,63.2 mg/dL
same,TP,9 h,5.1 g/dL
same,gamma-GTP,9 h,1.6 IU/L
same,TERMINAL_BW,24 h,220.3 g
same,APTT,24 h,21.7 s
same,Bas,24 h,0%
same,Eos,24 h,0.8%
same,Fbg,24 h,304.4 mg/dL
same,Hb,24 h,12.5 g/dL
same,Ht,24 h,39.6%
same,Lym,24 h,81.2%
same,MCH,24 h,20.3 pg
same,MCHC,24 h,31.7%
same,MCV,24 h,64 fL
same,Mono,24 h,1.8%
same,Neu,24 h,15.6%
same,PT,24 h,15.4 s
same,Plat,24 h,119.9 x10_4/uL
same,RBC,24 h,619.8 x10_4/ul
same,Ret,24 h,7.6%
same,WBC,24 h,71.5 x10_2/uL
same,KIDNEY_L,24 h,1 g
same,KIDNEY_R,24 h,1 g
same,KIDNEY_TOTAL,24 h,2.1 g
same,LIVER,24 h,10.2 g
same,A/G,24 h,1.2
same,ALP,24 h,1849.4 IU/L
same,ALT,24 h,45 IU/L
same,AST,24 h,81.6 IU/L
same,BUN,24 h,15.2 mg/dL
same,CRE,24 h,0.1 mg/dL
same,Ca,24 h,10.7 mg/dL
same,Cl,24 h,106.8 meq/L
same,DBIL,24 h,0.002 mg/dL
same,GLC,24 h,189.2 mg/dL
same,IP,24 h,8.2 mg/dL
same,K,24 h,4.4 meq/L
same,LDH,24 h,191 IU/L
same,Na,24 h,141.6 meq/L
same,PL,24 h,147.2 mg/dL
same,RALB,24 h,2.8 g/dL
same,TBIL,24 h,0.002 mg/dL
same,TC,24 h,95.8 mg/dL
same,TG,24 h,74 mg/dL
same,TP,24 h,5.3 g/dL
same,gamma-GTP,24 h,1.6 IU/L
